Test results as given in patent US20240417435A1, “DEFENSIN-DERIVED PEPTIDE WITH ANTIBACTERIAL ACTIVITY ALSO AGAINST MULTI-ANTIBIOTIC-RESISTANT BACTERIA” (priority 2021, published 2024).
Converted amounts (≈) assume the structure as drawn. Where a SMILES comes first, the peptide text is derived from it.

How the values were obtained:
MRSA strain 1 = assay type: cell-based, Staphylococcus aureus
Description: (§1) The antimicrobial activity of peptide γ2 was evaluated versus Pseudomonas aeruginosa ATCC 27853, Escherichia coli ATCC 13762 and Staphylococcus aureus ATCC 6538, and versus multidrug-resistant (MDR) clinical isolates of Methicillin-Resistant Staphylococcus aureus (MRSA), extended-spectrum β-lactamase (ESBL)-producing E. coli, P. aeruginosa and Acinetobacter baumannii complex. The isolates were identified by mass spectrometry using the MALDI (matrix-assisted laser desorption/ionisation) mass spectrometer and the biochemical phenotyping method in a VITEKR 2 bioMérieux system (bioMérieux Italia S.p.a., Bagno a Ripoli, Florence, Italy), according to the manufacturer's instructions. The antibiotic susceptibility profile was evaluated with the VITEKR 2 bioMérieux System. The microorganisms were cultured in broth and agar at 37° C. The media used were BD Brain Heart Infusion broth (BHI) (BD, Franklin Lakes, NJ, USA) and BHI agar (OXOID, Basingstoke, Hampshire, UK), BD Trypticase Soy agar with 5% sheep's blood and MacConkey agar (OXOID, Basingstoke, Hampshire, UK). The isolates were stored frozen at −80° C. in BHI broth supplemented with 10% (v/v) glycerol (Carlo Erba Reagents, Milan, Italy) until use, and the work cultures were activated in the respective broths at 37° C. for 15-18 h.
(§2) Assays of the antibacterial activity of peptide γ2, in both reduced and oxidised form, were conducted against P. aeruginosa ATCC 27853, E. coli ATCC 13762, S. aureus ATCC 6538 and MDR clinical isolates. The strains were cultured under aerobic conditions in BHI broth at 37° C. and incubated with peptide γ2 for 2 hours at 37° C. Various concentrations of peptide were used, ranging from 1 μM to 128 μM. Each test was conducted in triplicate with three independent cultures. The minimum inhibitory concentration (MIC) and the minimum bactericidal concentration (MBC) of the peptide were determined with a modified version of the Clinical and Laboratory Standards Institute broth microdilution assay, using a final inoculum concentration of 10^5 CFU/ml, as previously described (Scudiero O et al., Antimicrob Agents Chemother 2010; 54:2312-22; Scudiero O et al. Antimicrob Ag Chemother 2013; 57:1701-8).
(§3) The MIC is indicated by the concentration interval, which comprise the upper growth limit and the first concentration which could not support visible bacterial growth after incubation. The MBC was defined as the lowest concentration at which no viable colonies were observed. The peptide concentrations were 128.0, 64.0, 32.0, 16.0, 8.0, 4.0, 2.0 and 1 μM. For the time-kill studies against the ATCC and MDR strains, the bacteria were cultured in BHI broth until the late log growth phase at 37° C. The bacterial suspensions, containing about 10^6 CFU/ml (adjusted by the spectrophotometer to OD600 nm), were diluted 1:100 in PBS1× and then incubated at 37° C. with or without the peptide, selected at concentrations corresponding to 1, 2 and 4×MIC (as determined above). At baseline and 1, 2, 3 and 5 hours after incubation, a portion of each sample was harvested, diluted in series in PBS1× and seeded on BHI agar. The plates were incubated for […] at 37° C., and the viable bacteria count was conducted by the CFU method. All the data were expressed as mean±SD of three independent experiments.

MRSA strain 2 = assay type: cell-based, Staphylococcus aureus
Description: as §1, §2, §3

MRSA strain 3 = assay type: cell-based, Staphylococcus aureus
Description: as §1, §2, §3

S. aureus ATCC 6538 = assay type: cell-based, Staphylococcus aureus
Description: as §1, §2, §3

[1] = test system: A. baumannii MDR strain 1; assay type: cell-based, Acinetobacter baumannii complex
Description: as §1, §2, §3

[2] = test system: A. baumannii MDR strain 2; assay type: cell-based, Acinetobacter baumannii complex
Description: as §1, §2, §3

MRSA strains = experiment: In vitro time-kill kinetics assay; assay type: cell-based, Staphylococcus aureus; conditions: all MRSA strains; peptide at MIC; after 2 hours' incubation, throughout observation period
Description: as §3

[3] = test system: S. aureus ATCC 6538 (ATCC reference strain); experiment: In vitro time-kill kinetics assay; assay type: cell-based, Staphylococcus aureus; conditions: peptide at MIC, after 2 hours' incubation
Description: as §3

[4] = test system: E. coli ATCC 13762 (ATCC reference strain); experiment: In vitro time-kill kinetics assay; assay type: cell-based, Escherichia coli; conditions: peptide at MIC, after 2 hours' incubation
Description: as §3

ESBL strains of E. coli = experiment: In vitro time-kill kinetics assay; assay type: cell-based, Escherichia coli; conditions: peptide at MIC, after 2 hours' incubation, throughout observation period
Description: as §3

P. aeruginosa ATCC 27853 = experiment: In vitro time-kill kinetics assay; assay type: cell-based, Pseudomonas aeruginosa
Description: as §3

[5] = test system: P. aeruginosa MDR 2 strain; experiment: In vitro time-kill kinetics assay; assay type: cell-based, Pseudomonas aeruginosa
Description: as §3

A. baumannii MDR 2 = experiment: In vitro time-kill kinetics assay; assay type: cell-based, Acinetobacter baumannii complex
Description: as §3

**Q.** Which MBC (MRSA strain 1) does the source give for CC[C@H](C)[C@H](NC(=O)[C@H](CCC(N)=O)NC(=O)[C@H](CCCNC(=N)N)NC(=O)[C@H](CCCNC(=N)N)NC(=O)[C@H](CCCCN)NC(=O)[C@@H]1CCCN1C(=O)[C@H](CC(C)C)NC(=O)[C@H](CS)NC(C)=O)C(=O)NCC(=O)N[C@@H](CCCCN)C(=O)N[C@@H](CO)C(=O)N[C@@H](CO)C(=O)N[C@H](C(=O)N[C@@H](CCCNC(=N)N)C(=O)NCC(=O)N[C@@H](CCCNC(=N)N)C(=O)N[C@@H](CCCCN)C(=O)N[C@@H](CO)C(=O)N[C@@H](CS)C(=O)N[C@@H](CCCCN)C(=O)N[C@@H](CCCCN)C(N)=O)[C@@H](C)O [Reduced peptide γ2] (Ac-CLPKRRQIGKSSTRGRKSCKK-NH2) here?
**A.** 1 µM (≈ 2.46 µg/mL)

**Q.** And the MIC (MRSA strain 1)?
**A.** 1 µM (≈ 2.46 µg/mL)

**Q.** And the MBC (MRSA strain 2)?
**A.** 16 µM (≈ 39.3 µg/mL)

**Q.** What about the MIC (MRSA strain 2) of the same molecule?
**A.** 4 to 8 µM

**Q.** And the MBC (MRSA strain 3)?
**A.** 4 µM (≈ 9.84 µg/mL)

**Q.** What about the MIC (MRSA strain 3) of the same molecule?
**A.** 1 µM (≈ 2.46 µg/mL)

**Q.** What about the MBC (S. aureus ATCC 6538) of the same molecule?
**A.** 1 to 2 µM

**Q.** And the MBC [1]?
**A.** 64 µM (≈ 157 µg/mL)

**Q.** And the MIC ([2]; A. baumannii MDR strain 2)?
**A.** 1 µM (≈ 2.46 µg/mL)

**Q.** What about the MBC ([2]; MDR strain 2) of the same molecule?
**A.** 1 µM (≈ 2.46 µg/mL)

**Q.** What about the “growth in time-kill assay” value (MRSA strains) of the same molecule?
**A.** total reduction in growth

**Q.** What about the “growth in time-kill assay” value [3] of the same molecule?
**A.** total reduction in growth

**Q.** And the “growth in time-kill assay” value [4]?
**A.** total reduction in growth

**Q.** And the “growth in time-kill assay” value (ESBL strains of E. coli)?
**A.** total reduction in growth

**Q.** And the “growth in time-kill assay” value (P. aeruginosa ATCC 27853; peptide at 2×MIC)?
**A.** no growth

**Q.** And the “growth and viability in time-kill assay” value (P. aeruginosa ATCC 27853; peptide at MIC only)?
**A.** initial reduction in growth and viability in the first few hours of observation, whereas at longer times (5 and 7 h) a slight resumption in growth and viability

**Q.** And the “growth in time-kill assay” value ([5]; peptide at 2×MIC)?
**A.** no growth

**Q.** And the “growth and viability in time-kill assay” value ([5]; peptide at MIC only)?
**A.** initial reduction in growth and viability in the first few hours of observation, whereas at longer times (5 and 7 h) a slight resumption in growth and viability

**Q.** And the “growth and viability in time-kill assay” value (A. baumannii MDR 2; after 2 hours' treatment)?
**A.** great reduction in growth and viability

**Q.** And the “growth and viability in time-kill assay” value (A. baumannii MDR 2; longer observation times, even at 4×MIC)?
**A.** slight recovery of growth and viability
